Test results from patent US6875451B2, “Compositions and methods for the treatment of primary and metastatic neoplastic diseases using arsenic compounds” (PolaRx Biopharmaceuticals Inc., priority 1997, dated 2005).

Key:
Type in all cases: cell-based
SF-539 = assay: SRB growth assay, 6 days exposure, CNS cancer; conditions: SF-539, 6 days
Method: (§1) Arsenic trioxide (1 mg/ml, 10 mg/ampoule, manufactured by Taylor Pharmaceuticals, Decatur, Ill.) was tested at five concentrations each at 10-fold dilutions, i.e., 10^−5, 10^−6, 10^−7, 10^−8 and 10^−9 μg/ml.
(§2) The in vitro tests were performed by incubating the test cells in the presence of the indicated concentration of arsenic trioxide under standard culture conditions for a designated period of time, which is followed by a sulforhodamine B (SRB) protein assay to estimate cell viability or growth. The cell lines are organized into subpanels according to the origin of the cell lines, e.g., leukemia, breast cancer, etc. A description of the cell lines and method of testing is described in Monk et al. (1997, Anticancer Drug Des. 12:533-41) and Weinstein et al., (1997, Science 275:343-9), which are incorporated herein in their entirety.
(§3) The measurement of an effect is expressed in Percentage Growth (PG). The measured effect of the compound on a cell line is calculated according to one or the other of the following two expressions: If (Mean ODtest−Mean ODzero)≧0. then PG=100×(Mean ODtest−Mean ODzero)/(Mean ODctrl−Mean ODzero) If (Mean ODtest−Mean ODzero)<0. then PG=100×(Mean ODtest−Mean ODzero)/(Mean ODzero where: • Mean ODzero=the average of optical density measurements of SRB-derived color just before exposure of cells to the test compounds; • Mean ODtest=the average of optical density measurements of SRB-derived color after exposure of cells to the test compound for a designated period of time; and • Mean ODctrl=the average of optical density measurements of SRB-derived color after with no exposure of cells to the test compound for a designated period of time
(§4) The first two columns describe the subpanel (e.g., leukemia) and cell line (e.g., CCRF-CEM) involved. The next two columns list the Mean ODzero and Mean ODctrl; the next five columns list the Mean ODtest for each of five different concentrations. Each concentration is expressed as the log10 (molar or μg/ml). The next five columns list the calculated PGs for each concentration. The response parameters GI50, TGI and LC50 are interpolated values representing the concentrations at which the PG is +50, 0, and −50, respectively. Sometimes these response parameters cannot be obtained by interpolation. If, for instance, all of the PGs in a given row exceed +50, then none of the three parameters can be obtained by interpolation. In such a case, the value given for each response parameter is the highest concentration tested and is preceded by a “>” sign. This practice is extended similarly to the other possible situations where a response parameter cannot be obtained by interpolation.
(§5) In the first set, the cells from 56 different cancer cell lines were exposed to five concentrations of arsenic trioxide continuously for two days prior to performing the SRB assay. In the second set, the cells from 50 different cell lines (a subset of the first 56 cell lines, plus the renal cancer cell line 786-0) were exposed continuously for six days prior to the SRB assay.

U251 = assay: SRB growth assay, 6 days exposure, CNS cancer; conditions: U251, 6 days
Method: as §1, §2, §3, §4, §5

SF-295 = assay: SRB growth assay, 6 days exposure, CNS cancer; conditions: SF-295, 6 days
Method: as §1, §2, §3, §4, §5

SF-268 = assay: SRB growth assay, 6 days exposure, CNS cancer; conditions: SF-268, 6 days
Method: as §1, §2, §3, §4, §5

SNB-75 = assay: SRB growth assay, 6 days exposure, CNS cancer; conditions: SNB-75, 6 days
Method: as §1, §2, §3, §4, §5

NCI-H522 = assay: SRB growth assay, 2 days exposure, non-small cell lung cancer
Method: as §1, §2, §3, §4, §5

NCI-8322M = assay: as above
Method: as §1, §2, §3, §4, §5

HOP-92 = assay: as above
Method: as §1, §2, §3, §4, §5

NCI-H226 = assay: as above
Method: as §1, §2, §3, §4, §5

SK-OV-3 = assay: SRB growth assay, 2 days exposure, ovarian cancer
Method: as §1, §2, §3, §4, §5

arsenic trioxide
TGI (SF-539): 3.29E−06
Mean Optical Densities (SF-539; Log 10 Concentration −4.9): 0.017
Percent Growth (SF-539; Log 10 Concentration −4.9): −59%
Mean Optical Densities (SF-539; Log 10 Concentration −5.9): 0.691
Percent Growth (SF-539; Log 10 Concentration −5.9): 42%
Mean Optical Densities (SF-539; Log 10 Concentration −6.9): 1.545
Percent Growth (SF-539; Log 10 Concentration −6.9): 97%
Mean Optical Densities (SF-539; Log 10 Concentration −7.9): 1.403
Percent Growth (SF-539; Log 10 Concentration −7.9): 87%
Mean Optical Densities (SF-539; Log 10 Concentration −8.9): 1.727
Percent Growth (SF-539; Log 10 Concentration −8.9): 108%
TGI (U251): 8.51E−07
Mean Optical Densities (U251; Log 10 Concentration −4.9): −0.012
Percent Growth (U251; Log 10 Concentration −4.9): −100%
Mean Optical Densities (U251; Log 10 Concentration −5.9): 0.088
Percent Growth (U251; Log 10 Concentration −5.9): −17%
Mean Optical Densities (U251; Log 10 Concentration −6.9): 1.908
Percent Growth (U251; Log 10 Concentration −6.9): 81%
Mean Optical Densities (U251; Log 10 Concentration −7.9): 2.018
Percent Growth (U251; Log 10 Concentration −7.9): 86%
Mean Optical Densities (U251; Log 10 Concentration −8.9): 2.129
Percent Growth (U251; Log 10 Concentration −8.9): 91%
TGI (SF-295): 3.25E−06
Mean Optical Densities (SF-295; Log 10 Concentration −4.9): 0.010
Percent Growth (SF-295; Log 10 Concentration −4.9): −69%
Mean Optical Densities (SF-295; Log 10 Concentration −5.9): 0.659
Percent Growth (SF-295; Log 10 Concentration −5.9): 49%
Mean Optical Densities (SF-295; Log 10 Concentration −6.9): 1.244
Percent Growth (SF-295; Log 10 Concentration −6.9): 94%
Mean Optical Densities (SF-295; Log 10 Concentration −7.9): 1.279
Percent Growth (SF-295; Log 10 Concentration −7.9): 97%
Mean Optical Densities (SF-295; Log 10 Concentration −8.9): 1.284
Percent Growth (SF-295; Log 10 Concentration −8.9): 97%
TGI (SF-268): 2.57E−06
Mean Optical Densities (SF-268; Log 10 Concentration −4.9): −0.004
Percent Growth (SF-268; Log 10 Concentration −4.9): −100%
Mean Optical Densities (SF-268; Log 10 Concentration −5.9): 0.387
Percent Growth (SF-268; Log 10 Concentration −5.9): 45%
Mean Optical Densities (SF-268; Log 10 Concentration −6.9): 0.356
Percent Growth (SF-268; Log 10 Concentration −6.9): 41%
Mean Optical Densities (SF-268; Log 10 Concentration −7.9): 0.381
Percent Growth (SF-268; Log 10 Concentration −7.9): 44%
Mean Optical Densities (SF-268; Log 10 Concentration −8.9): 0.990
Percent Growth (SF-268; Log 10 Concentration −8.9): 126%
TGI (SNB-75): 3.80E−06
Mean Optical Densities (SNB-75; Log 10 Concentration −4.9): 0.028
Percent Growth (SNB-75; Log 10 Concentration −4.9): −79%
Mean Optical Densities (SNB-75; Log 10 Concentration −5.9): 0.815
Percent Growth (SNB-75; Log 10 Concentration −5.9): 73%
Mean Optical Densities (SNB-75; Log 10 Concentration −6.9): 1.024
Percent Growth (SNB-75; Log 10 Concentration −6.9): 96%
Mean Optical Densities (SNB-75; Log 10 Concentration −7.9): 1.033
Percent Growth (SNB-75; Log 10 Concentration −7.9): 97%
Mean Optical Densities (SNB-75; Log 10 Concentration −8.9): 1.143
Percent Growth (SNB-75; Log 10 Concentration −8.9): 108%
TGI (NCI-H522): 0.00708 ng/mL
Percent Growth (NCI-H522; log10 conc −4.9): −21%
Percent Growth (NCI-H522; log10 conc −5.9): 63%
Percent Growth (NCI-H522; log10 conc −6.9): 108%
Percent Growth (NCI-H522; log10 conc −7.9): 100%
Percent Growth (NCI-H522; log10 conc −8.9): 129%
TGI (NCI-8322M): >0.0126 ng/mL
Percent Growth (NCI-8322M; log10 conc −4.9): 61%
Percent Growth (NCI-8322M; log10 conc −5.9): 99%
Percent Growth (NCI-8322M; log10 conc −6.9): 97%
Percent Growth (NCI-8322M; log10 conc −7.9): 106%
Percent Growth (NCI-8322M; log10 conc −8.9): 117%
TGI (HOP-92): >0.0126 ng/mL
Percent Growth (HOP-92; log10 conc −4.9): 31%
Percent Growth (HOP-92; log10 conc −5.9): 74%
Percent Growth (HOP-92; log10 conc −6.9): 82%
Percent Growth (HOP-92; log10 conc −7.9): 92%
Percent Growth (HOP-92; log10 conc −8.9): 88%
TGI (NCI-H226): >0.0126 ng/mL
Percent Growth (NCI-H226; log10 conc −4.9): 92%
Percent Growth (NCI-H226; log10 conc −5.9): 109%
Percent Growth (NCI-H226; log10 conc −6.9): 109%
Percent Growth (NCI-H226; log10 conc −7.9): 96%
Percent Growth (NCI-H226; log10 conc −8.9): 109%
TGI (SK-OV-3): >0.0126 ng/mL
Percent Growth (SK-OV-3; log10 conc −4.9): 40%
Percent Growth (SK-OV-3; log10 conc −5.9): 100%
Percent Growth (SK-OV-3; log10 conc −6.9): 98%
Percent Growth (SK-OV-3; log10 conc −7.9): 97%
Percent Growth (SK-OV-3; log10 conc −8.9): 94%
